Measured values from article PMC10709440, “High-throughput ligand profile characterization in novel cell lines expressing seven heterologous insect olfactory receptors for the detection of volatile plant biomarkers” (Scientific Reports, 2023).
Where two headings read alike, the source gives them in different places.

Key:
Drosophila OR10a = biological target: T1, Drosophila OR10a (Drosophila melanogaster, UniProt Q9VYZ1); assay: Calcium ion fluorescence (GCaMP6) assay, OR10a stable HEK293 cell line; type: cell-based; conditions: for OR10a response (VUAA1-normalized) at 1 μM / OR10a response (VUAA1-normalized) at 10 μM / OR10a response (VUAA1-normalized) at 100 μM: OR10a cell line
T1 construct: expressed in transfected cells
T1 sequence (Q9VYZ1 1-406): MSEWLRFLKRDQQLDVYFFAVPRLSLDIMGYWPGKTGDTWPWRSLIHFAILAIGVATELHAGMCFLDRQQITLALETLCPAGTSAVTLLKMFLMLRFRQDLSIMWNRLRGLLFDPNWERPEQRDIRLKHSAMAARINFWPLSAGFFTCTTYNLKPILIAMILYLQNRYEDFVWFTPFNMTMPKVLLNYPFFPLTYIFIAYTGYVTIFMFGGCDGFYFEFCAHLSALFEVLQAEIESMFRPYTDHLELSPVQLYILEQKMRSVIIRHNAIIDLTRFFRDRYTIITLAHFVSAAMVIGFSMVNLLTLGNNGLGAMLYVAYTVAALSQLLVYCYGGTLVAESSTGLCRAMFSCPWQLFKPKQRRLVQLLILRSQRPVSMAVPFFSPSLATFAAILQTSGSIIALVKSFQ
T1 sequence (Q9VNB5 1-486 partner): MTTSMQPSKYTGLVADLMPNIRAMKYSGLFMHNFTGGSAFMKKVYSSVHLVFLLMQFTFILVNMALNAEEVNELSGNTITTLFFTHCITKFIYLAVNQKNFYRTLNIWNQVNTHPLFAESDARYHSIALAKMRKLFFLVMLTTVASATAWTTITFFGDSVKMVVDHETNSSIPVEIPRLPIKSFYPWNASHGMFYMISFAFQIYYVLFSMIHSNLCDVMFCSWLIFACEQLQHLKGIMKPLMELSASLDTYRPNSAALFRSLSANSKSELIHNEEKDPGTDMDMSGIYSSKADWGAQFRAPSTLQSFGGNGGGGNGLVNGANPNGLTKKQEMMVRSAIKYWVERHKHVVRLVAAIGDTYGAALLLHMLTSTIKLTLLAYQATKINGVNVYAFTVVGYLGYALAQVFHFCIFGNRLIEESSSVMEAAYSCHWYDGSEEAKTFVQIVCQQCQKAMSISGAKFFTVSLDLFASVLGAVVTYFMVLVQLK
Procedure, shortened: (§1)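 Responses are VUAA1-normalized ΔF: each VOC-evoked calcium signal, (FMAX−F0)/F0 over 30 s after injection, divided by the same line's mean 50 µM VUAA1 response. Cells were doxycycline-induced HEK293 with GCaMP6 and the cognate Drosophila OR, in HEPES buffer pH 7.3; ligands tested 0.01–100 μM.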

Drosophila OR98a = biological target: T2, Drosophila OR98a (Drosophila melanogaster, UniProt Q9VAZ3); assay: Calcium ion fluorescence (GCaMP6) assay, OR98a stable HEK293 cell line; type: cell-based; conditions: for OR98a response (VUAA1-normalized) at 1 μM / OR98a response (VUAA1-normalized) at 10 μM / OR98a response (VUAA1-normalized) at 100 μM / Average response: OR98a cell line; for Average response: average of biological replicates, fraction of VUAA1 response
T2 construct: expressed in transfected cells
T2 sequence (Q9VAZ3 1-397): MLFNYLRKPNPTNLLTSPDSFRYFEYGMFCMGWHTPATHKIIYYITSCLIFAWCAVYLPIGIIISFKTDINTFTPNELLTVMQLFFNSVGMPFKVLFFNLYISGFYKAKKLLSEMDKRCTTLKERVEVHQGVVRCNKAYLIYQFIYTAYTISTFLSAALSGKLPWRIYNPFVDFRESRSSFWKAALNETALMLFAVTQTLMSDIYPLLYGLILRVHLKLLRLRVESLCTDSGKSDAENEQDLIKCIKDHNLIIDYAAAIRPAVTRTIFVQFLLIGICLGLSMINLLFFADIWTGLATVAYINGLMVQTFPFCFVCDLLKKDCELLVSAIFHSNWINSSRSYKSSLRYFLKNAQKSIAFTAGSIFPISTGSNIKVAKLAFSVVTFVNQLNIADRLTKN
T2 sequence (Q9VNB5 1-486 partner): T1 sequence (Q9VNB5 1-486 partner)
Procedure, shortened: as §1

[1] = HEK293, read-out: OR10a Average response (VUAA1-normalized), 1 μM VOC, 50 μM VUAA1 = 1, responses not exceeding 0.05 considered 0
[2] = HEK293, read-out: OR10a Average response (VUAA1-normalized), 10 μM VOC, 50 μM VUAA1 = 1, responses not exceeding 0.05 considered 0
[3] = HEK293, read-out: OR10a Average response (VUAA1-normalized), 100 μM VOC, 50 μM VUAA1 = 1, responses not exceeding 0.05 considered 0
[4] = ligand concentration 1 (unit not given), threshold 0.05, below shown as 0
[5] = ligand concentration 10 (unit not given), threshold 0.05, below shown as 0
[6] = ligand concentration 100 (unit not given), threshold 0.05, below shown as 0
[7] = HEK293, read-out: Average response
[8] = HEK293, 1 μM VOC, 50 μM VUAA1 = 1, responses not exceeding 0.05 considered 0, read-out: OR10a Average response (VUAA1-normalized)
[9] = HEK293, 10 μM VOC, 50 μM VUAA1 = 1, responses not exceeding 0.05 considered 0, read-out: OR10a Average response (VUAA1-normalized)
[10] = HEK293, 100 μM VOC, 50 μM VUAA1 = 1, responses not exceeding 0.05 considered 0, read-out: OR10a Average response (VUAA1-normalized)
[11] = HEK293, read-out: OR10a response (VUAA1-normalized response), VOC concentration 1 μM
[12] = HEK293, read-out: OR10a response (VUAA1-normalized response), VOC concentration 10 μM
[13] = HEK293, read-out: OR10a response (VUAA1-normalized response), VOC concentration 100 μM
[14] = HEK293, read-out: OR98a response (VUAA1-normalized response)
[15] = concentration 1, normalized fluorescence change, values below 0.05 threshold given as 0
[16] = concentration 10, normalized fluorescence change, values below 0.05 threshold given as 0
[17] = concentration 100, normalized fluorescence change, values below 0.05 threshold given as 0
[18] = HEK293, read-out: OR98a Average response (VUAA1-normalized)

Structure (SMILES) | activation at 1 µM (Drosophila OR10a; [1]) [%] | activation at 10 µM (Drosophila OR10a; [2]) [%] | activation at 100 µM (Drosophila OR10a; [3]) [%] | DF norm AVERAGE OR10a (Drosophila OR10a; [4]) | DF norm AVERAGE OR10a (Drosophila OR10a; [5]) | DF norm AVERAGE OR10a (Drosophila OR10a; [6]) | activation at 1 µM (Drosophila OR98a; [7]) [%] | activation at 10 µM (Drosophila OR98a; [7]) [%] | activation at 100 µM (Drosophila OR98a; [7]) [%] | DF norm AVERAGE OR98a (Drosophila OR98a; [4]) | DF norm AVERAGE OR98a (Drosophila OR98a; [5]) | DF norm AVERAGE OR98a (Drosophila OR98a; [6]) | activation at 1 µM (Drosophila OR10a; [8]) [%] | activation at 10 µM (Drosophila OR10a; [9]) [%] | activation at 1 µM (Drosophila OR10a; [11]) [%] | activation at 10 µM (Drosophila OR10a; [12]) [%] | activation at 100 µM (Drosophila OR10a; [13]) [%] | activation at 1 µM (Drosophila OR98a; [14]) [%] | activation at 10 µM (Drosophila OR98a; [14]) [%] | activation at 100 µM (Drosophila OR98a; [14]) [%] | further results
Cc1ccccc1C [o-xylene] | 0 | 0 | 0 | 0 | 0 | 0 | 0 | 0 | 0 | 0 | 0 | 0 |  |  |  |  |  |  |  |  | OR10a response (VUAA1-normalized) at 1 μM (Drosophila OR10a; VOC concentration 1 μM): 0.00; OR10a response (VUAA1-normalized) at 10 μM (Drosophila OR10a; VOC concentration 10 μM): 0.00; OR10a response (VUAA1-normalized) at 100 μM (Drosophila OR10a; VOC concentration 100 μM): 0.00; OR98a response (VUAA1-normalized) at 1 μM (Drosophila OR98a; VOC concentration 1 μM): 0.00; OR98a response (VUAA1-normalized) at 10 μM (Drosophila OR98a; VOC concentration 10 μM): 0.00; OR98a response (VUAA1-normalized) at 100 μM (Drosophila OR98a; VOC concentration 100 μM): 0.00
CCOC(=O)CC [ethyl propionate] |  |  |  | 0 | 0 | 0 | 2 | 2 | 1.5 | 0 | 0 | 0 | 1.56 | 1.89 | 0 | 0 | 0 | 0 | 0 | 0 | activation at 100 µM (Drosophila OR10a; [10]): 0%
C=C1CCC2CC1C2(C)C (stereo not drawn) [beta-pinene] | 2.77 | 4 | 9 | 0 | 0 | 0.0885 | 19 | 17 | 1.89 | 0.1942 | 0.1655 | 0 |  |  | 0 | 0 | 9 | 19 | 17 | 0 | 
CC/C=C\CCOC(C)=O [Z-3-hexenyl acetate] |  |  |  |  |  |  |  |  |  |  |  |  |  |  |  |  |  |  |  |  | OR10a response (VUAA1-normalized) at 1 μM (Drosophila OR10a; VOC concentration 1 μM): 0.14; OR10a response (VUAA1-normalized) at 10 μM (Drosophila OR10a; VOC concentration 10 μM): 0.00; OR10a response (VUAA1-normalized) at 100 μM (Drosophila OR10a; VOC concentration 100 μM): 0.00; OR98a response (VUAA1-normalized) at 1 μM (Drosophila OR98a; VOC concentration 1 μM): 0.00; OR98a response (VUAA1-normalized) at 10 μM (Drosophila OR98a; VOC concentration 10 μM): 0.00; OR98a response (VUAA1-normalized) at 100 μM (Drosophila OR98a; VOC concentration 100 μM): 0.10
CC1=CCC2C(C1)C2(C)C (centres unmarked) [3-carene] | 7 | 0 | 0 |  |  |  | 0 | 1.26 | 0 |  |  |  |  |  | 7 | 0 | 0 | 0 | 0 | 0 | DF norm AVERAGE OR10a (Drosophila OR10a; [15]): 0.0692; DF norm AVERAGE OR10a (Drosophila OR10a; [16]): 0; DF norm AVERAGE OR10a (Drosophila OR10a; [17]): 0; DF norm AVERAGE OR98a (Drosophila OR98a; [15]): 0; DF norm AVERAGE OR98a (Drosophila OR98a; [16]): 0; DF norm AVERAGE OR98a (Drosophila OR98a; [17]): 0
CCOC(=O)c1ccccc1 [ethyl benzoate] | 29 | 45 | 49 | 0.2908 | 0.4538 | 0.4934 | 3 | 0 | 20 | 0 | 0 | 0.2048 |  |  | 29 | 45 | 49 | 0 | 0 | 20 | activation at 1 µM (Drosophila OR98a; [18]): 3%; activation at 10 µM (Drosophila OR98a; [18]): 0%; activation at 100 µM (Drosophila OR98a; [18]): 20%
C=C(C)C1CCC2(C)OC2C1 (single isomer, unassigned; (+)) [(+)-limonene oxide] |  |  |  |  |  |  |  |  |  |  |  |  |  |  |  |  |  |  |  |  | DF norm AVERAGE OR10a (Drosophila OR10a): 0; OR10a Average response (VUAA1-normalized) (Drosophila OR10a; 1 μM VOC, 50 μM VUAA1 = 1, responses not exceeding 0.05 considered 0): 0.00; OR10a Average response (VUAA1-normalized) (Drosophila OR10a; 10 μM VOC, 50 μM VUAA1 = 1, responses not exceeding 0.05 considered 0): 0.02; OR10a Average response (VUAA1-normalized) (Drosophila OR10a; 100 μM VOC, 50 μM VUAA1 = 1, responses not exceeding 0.05 considered 0): 0.00; OR10a response (VUAA1-normalized response) (Drosophila OR10a; VOC concentration 1 μM): 0.00; OR10a response (VUAA1-normalized response) (Drosophila OR10a; VOC concentration 10 μM): 0.00; OR10a response (VUAA1-normalized response) (Drosophila OR10a; VOC concentration 100 μM): 0.00; OR98a response (VUAA1-normalized response) (Drosophila OR98a; VOC concentration 1 μM): 0.00; OR98a response (VUAA1-normalized response) (Drosophila OR98a; VOC concentration 10 μM): 0.00; OR98a response (VUAA1-normalized response) (Drosophila OR98a; VOC concentration 100 μM): 0.00; Average response (Drosophila OR98a; cc. 1 µM): 0.00; Average response (Drosophila OR98a; cc. 10 µM): 0.00; Average response (Drosophila OR98a; cc. 100 µM): 0.00; DF norm AVERAGE OR98a (Drosophila OR98a; [15]): 0; DF norm AVERAGE OR98a (Drosophila OR98a; [16]): 0; DF norm AVERAGE OR98a (Drosophila OR98a; [17]): 0
C=CC(O)CCCCC (centres unmarked) [1-octen-3-ol] |  |  |  |  |  |  | 0 | 1.13 | 21 |  |  |  | 0 | 2.34 | 0 | 0 | 0 | 0 | 0 | 21 | DF norm AVERAGE OR10a (Drosophila OR10a): 0; activation at 100 µM (Drosophila OR10a; [10]): 4.52%; activation at 1 µM (Drosophila OR98a; [18]): 0%; activation at 10 µM (Drosophila OR98a; [18]): 1%; activation at 100 µM (Drosophila OR98a; [18]): 21%; DF norm AVERAGE OR98a (Drosophila OR98a; [15]): 0; DF norm AVERAGE OR98a (Drosophila OR98a; [16]): 0; DF norm AVERAGE OR98a (Drosophila OR98a; [17]): 0.2102
C=CCc1ccc(O)c(OC)c1 [eugenol] |  |  |  | 0.08485 | 0.05743 | 0 | 3.37 | 0 | 0 | 0 | 0 | 0 | 8.49 | 6 | 8.49 | 6 | 0 | 0 | 0 | 0 | activation at 100 µM (Drosophila OR10a; [10]): 0%
